Measured values: the NIST ThermoML archive (doi:10.1016/j.jct.2013.01.013)
Numbers after ± are expanded uncertainties.

Experiment: xn = mol fraction of the nth substance listed
Settings: 101 kPa, Liquid; for viscosity: Capillary tube (Ostwald / Ubbelohde) method; for speed of sound: Linear variable-path acoustic interferometer; for mass density: Pycnometric method

C=C(C)C(=O)OC [methyl methacrylate] + CN(C)C=O
Settings	mass density [kg/m3]	speed of sound [m/s]	viscosity [mPa·s]
288.15 K, x1 = 0.0696	953.35 ± 0.29	1484.1 ± 1.6	0.905 ± 0.0078
288.15 K, x1 = 0.1417	953.07 ± 0.29	1464.4 ± 1.6	0.868 ± 0.0075
288.15 K, x1 = 0.211	952.8 ± 0.29	1445.5 ± 1.6	0.8355 ± 0.0072
288.15 K, x1 = 0.2855	952.5 ± 0.28	1425.2 ± 1.6	0.8041 ± 0.007
288.15 K, x1 = 0.3573	952.22 ± 0.28	1405.4 ± 1.6	0.7765 ± 0.0067
288.15 K, x1 = 0.4308	951.91 ± 0.28	1384.8 ± 1.6	0.7513 ± 0.0065
288.15 K, x1 = 0.5042	951.58 ± 0.27	1363.9 ± 1.5	0.729 ± 0.0064
288.15 K, x1 = 0.578	951.23 ± 0.27	1342.6 ± 1.5	0.7083 ± 0.0062
288.15 K, x1 = 0.6552	950.86 ± 0.27	1320 ± 1.5	0.6885 ± 0.006
288.15 K, x1 = 0.7204	950.53 ± 0.27	1300.7 ± 1.5	0.6742 ± 0.0059
288.15 K, x1 = 0.7873	950.19 ± 0.26	1280.7 ± 1.5	0.6612 ± 0.0058
288.15 K, x1 = 0.8548	949.84 ± 0.26	1260.4 ± 1.4	0.6505 ± 0.0057
288.15 K, x1 = 0.9268	949.47 ± 0.26	1238.7 ± 1.4	0.6417 ± 0.0056
288.15 K, x1 = 1	949.1 ± 0.26	1216.8 ± 1.4	0.634 ± 0.0056
293.15 K, x1 = 0.0696	948.76 ± 0.28	1466.8 ± 1.6	0.834 ± 0.0072
293.15 K, x1 = 0.1417	948.39 ± 0.28	1447.2 ± 1.6	0.8009 ± 0.007
293.15 K, x1 = 0.211	948.03 ± 0.27	1428.4 ± 1.6	0.7713 ± 0.0067
293.15 K, x1 = 0.2855	947.64 ± 0.27	1408.2 ± 1.6	0.742 ± 0.0065
293.15 K, x1 = 0.3573	947.25 ± 0.27	1388.5 ± 1.6	0.717 ± 0.0063
293.15 K, x1 = 0.4308	946.85 ± 0.26	1368 ± 1.5	0.6941 ± 0.0061
293.15 K, x1 = 0.5042	946.43 ± 0.26	1347.2 ± 1.5	0.6736 ± 0.0059
293.15 K, x1 = 0.578	946 ± 0.26	1326 ± 1.5	0.6552 ± 0.0058
293.15 K, x1 = 0.6552	945.53 ± 0.26	1303.5 ± 1.5	0.6382 ± 0.0057
293.15 K, x1 = 0.7204	945.13 ± 0.25	1284.3 ± 1.5	0.6261 ± 0.0056
293.15 K, x1 = 0.7873	944.72 ± 0.25	1264.4 ± 1.4	0.6149 ± 0.0055
293.15 K, x1 = 0.8548	944.29 ± 0.25	1244.1 ± 1.4	0.6055 ± 0.0054
293.15 K, x1 = 0.9268	943.83 ± 0.25	1222.5 ± 1.4	0.598 ± 0.0053
293.15 K, x1 = 1	943.37 ± 0.25	1200.5 ± 1.4	0.5903 ± 0.0053
298.15 K, x1 = 0.0696	944.17 ± 0.29	1450 ± 1.6	0.7818 ± 0.0068
298.15 K, x1 = 0.1417	943.71 ± 0.29	1430.6 ± 1.6	0.7509 ± 0.0066
298.15 K, x1 = 0.211	943.26 ± 0.28	1411.8 ± 1.6	0.7233 ± 0.0064
298.15 K, x1 = 0.2855	942.77 ± 0.28	1391.5 ± 1.6	0.6958 ± 0.0062
298.15 K, x1 = 0.3573	942.29 ± 0.28	1371.8 ± 1.5	0.672 ± 0.006
298.15 K, x1 = 0.4308	941.79 ± 0.27	1351.3 ± 1.5	0.651 ± 0.0058
298.15 K, x1 = 0.5042	941.28 ± 0.27	1330.4 ± 1.5	0.632 ± 0.0056
298.15 K, x1 = 0.578	940.76 ± 0.27	1309.2 ± 1.5	0.6151 ± 0.0055
298.15 K, x1 = 0.6552	940.21 ± 0.27	1286.7 ± 1.5	0.6 ± 0.0054
298.15 K, x1 = 0.7204	939.73 ± 0.26	1267.4 ± 1.4	0.5885 ± 0.0053
298.15 K, x1 = 0.7873	939.24 ± 0.26	1247.4 ± 1.4	0.5786 ± 0.0052
298.15 K, x1 = 0.8548	938.74 ± 0.26	1227.1 ± 1.4	0.57 ± 0.0051
298.15 K, x1 = 0.9268	938.19 ± 0.26	1205.3 ± 1.4	0.5625 ± 0.0051
298.15 K, x1 = 1	937.63 ± 0.25	1183.6 ± 1.4	0.5544 ± 0.005
303.15 K, x1 = 0.0696	939.58 ± 0.3	1430.3 ± 1.6	0.737 ± 0.0065
303.15 K, x1 = 0.1417	939.03 ± 0.29	1411.3 ± 1.6	0.7088 ± 0.0063
303.15 K, x1 = 0.211	938.49 ± 0.29	1393 ± 1.6	0.683 ± 0.0061
303.15 K, x1 = 0.2855	937.9 ± 0.29	1373.1 ± 1.6	0.6568 ± 0.0059
303.15 K, x1 = 0.3573	937.33 ± 0.29	1353.7 ± 1.5	0.6346 ± 0.0057
303.15 K, x1 = 0.4308	936.73 ± 0.28	1333.6 ± 1.5	0.6148 ± 0.0055
303.15 K, x1 = 0.5042	936.13 ± 0.28	1313.1 ± 1.5	0.5972 ± 0.0054
303.15 K, x1 = 0.578	935.52 ± 0.28	1292.3 ± 1.5	0.5817 ± 0.0053
303.15 K, x1 = 0.6552	934.88 ± 0.28	1270.3 ± 1.5	0.5675 ± 0.0051
303.15 K, x1 = 0.7204	934.33 ± 0.27	1251.4 ± 1.4	0.5575 ± 0.0051
303.15 K, x1 = 0.7873	933.76 ± 0.27	1231.8 ± 1.4	0.5486 ± 0.005
303.15 K, x1 = 0.8548	933.19 ± 0.27	1211.8 ± 1.4	0.5408 ± 0.0049
303.15 K, x1 = 0.9268	932.55 ± 0.27	1190.4 ± 1.4	0.5331 ± 0.0048
303.15 K, x1 = 1	931.89 ± 0.26	1168.5 ± 1.4	0.5251 ± 0.0048
308.15 K, x1 = 0.0696	934.99 ± 0.31	1411 ± 1.6	0.694 ± 0.0062
308.15 K, x1 = 0.1417	934.35 ± 0.3	1392.3 ± 1.6	0.6678 ± 0.006
308.15 K, x1 = 0.211	933.72 ± 0.3	1374.3 ± 1.6	0.6435 ± 0.0058
308.15 K, x1 = 0.2855	933.03 ± 0.3	1354.7 ± 1.5	0.6191 ± 0.0056
308.15 K, x1 = 0.3573	932.36 ± 0.3	1335.6 ± 1.5	0.5978 ± 0.0054
308.15 K, x1 = 0.4308	931.67 ± 0.29	1315.7 ± 1.5	0.5793 ± 0.0053
308.15 K, x1 = 0.5042	930.98 ± 0.29	1295.5 ± 1.5	0.563 ± 0.0051
308.15 K, x1 = 0.578	930.28 ± 0.29	1275 ± 1.5	0.5488 ± 0.005
308.15 K, x1 = 0.6552	929.55 ± 0.28	1253.3 ± 1.4	0.5358 ± 0.0049
308.15 K, x1 = 0.7204	928.93 ± 0.28	1234.7 ± 1.4	0.5268 ± 0.0048
308.15 K, x1 = 0.7873	928.28 ± 0.28	1215.4 ± 1.4	0.5188 ± 0.0048
308.15 K, x1 = 0.8548	927.63 ± 0.28	1195.7 ± 1.4	0.5113 ± 0.0047
308.15 K, x1 = 0.9268	926.91 ± 0.28	1174.4 ± 1.4	0.5038 ± 0.0046
308.15 K, x1 = 1	926.15 ± 0.27	1152.6 ± 1.3	0.496 ± 0.0046
313.15 K, x1 = 0.0696	930.4 ± 0.32	1393.7 ± 1.6	0.662 ± 0.0059
313.15 K, x1 = 0.1417	929.67 ± 0.31	1375.1 ± 1.6	0.6373 ± 0.0057
313.15 K, x1 = 0.211	928.95 ± 0.31	1357.1 ± 1.5	0.6142 ± 0.0056
313.15 K, x1 = 0.2855	928.16 ± 0.31	1337.5 ± 1.5	0.5913 ± 0.0054
313.15 K, x1 = 0.3573	927.4 ± 0.31	1318.4 ± 1.5	0.5713 ± 0.0052
313.15 K, x1 = 0.4308	926.61 ± 0.3	1298.4 ± 1.5	0.5529 ± 0.0051
313.15 K, x1 = 0.5042	925.83 ± 0.3	1278.3 ± 1.5	0.5375 ± 0.0049
313.15 K, x1 = 0.578	925.04 ± 0.3	1257.9 ± 1.4	0.5237 ± 0.0048
313.15 K, x1 = 0.6552	924.22 ± 0.29	1236.2 ± 1.4	0.5115 ± 0.0047
313.15 K, x1 = 0.7204	923.53 ± 0.29	1217.7 ± 1.4	0.503 ± 0.0047
313.15 K, x1 = 0.7873	922.81 ± 0.29	1198.4 ± 1.4	0.4951 ± 0.0046
313.15 K, x1 = 0.8548	922.07 ± 0.29	1178.7 ± 1.4	0.4875 ± 0.0045
313.15 K, x1 = 0.9268	921.26 ± 0.29	1157.4 ± 1.4	0.4796 ± 0.0045
313.15 K, x1 = 1	920.41 ± 0.28	1135.4 ± 1.3	0.4723 ± 0.0044
318.15 K, x1 = 0.0696	925.81 ± 0.33	1375.2 ± 1.6	0.6419 ± 0.0058
318.15 K, x1 = 0.1417	924.99 ± 0.32	1356.8 ± 1.6	0.6179 ± 0.0056
318.15 K, x1 = 0.211	924.18 ± 0.32	1338.9 ± 1.5	0.5953 ± 0.0054
318.15 K, x1 = 0.2855	923.29 ± 0.32	1319.4 ± 1.5	0.5728 ± 0.0052
318.15 K, x1 = 0.3573	922.44 ± 0.31	1300.3 ± 1.5	0.553 ± 0.0051
318.15 K, x1 = 0.4308	921.55 ± 0.31	1280.5 ± 1.5	0.5345 ± 0.0049
318.15 K, x1 = 0.5042	920.68 ± 0.31	1260.5 ± 1.5	0.5185 ± 0.0048
318.15 K, x1 = 0.578	919.8 ± 0.31	1240.2 ± 1.4	0.5045 ± 0.0047
318.15 K, x1 = 0.6552	918.89 ± 0.3	1218.7 ± 1.4	0.4925 ± 0.0046
318.15 K, x1 = 0.7204	918.12 ± 0.3	1200.3 ± 1.4	0.4837 ± 0.0045
318.15 K, x1 = 0.7873	917.33 ± 0.3	1181.2 ± 1.4	0.475 ± 0.0044
318.15 K, x1 = 0.8548	916.51 ± 0.3	1161.6 ± 1.4	0.467 ± 0.0044
318.15 K, x1 = 0.9268	915.61 ± 0.29	1140.4 ± 1.3	0.4583 ± 0.0043
318.15 K, x1 = 1	914.66 ± 0.29	1118.3 ± 1.3	0.4499 ± 0.0042
